The results in this text go back to ChEMBL document CHEMBL1201862, “PubChem BioAssay data set” (2004).

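Dose response: 5 concentrations. Exposure: 48 h. Format: 96-well plates. Endpoint: linear interpolation; highest concentration if not reached. GI50 is the concentration that inhibits growth by half.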 Activity calls are given as the source filed them. Cut-off read from the data, not from the text of the source: active = GI50 up to about 1.1 µM and inactive = higher.

Assay in all cases: NCI-60 cell line screen, 48 h
Assay [1] deals with TK-10.
Assay [2] has as its system NCI-H460.
The test system of assay [3] is NCI-H226.
Assay [4] concerns A549.
For assay [5], the system named is ACHN.
In assay [6] the test system is KM12.
For assay [7], the system named is RPMI-8226.
The test system of assay [8] is HOP-62.
Assay [9] deals with SF-268.
The test system of assay [10] is PC-3.
The subject of assay [11] is A498.
The test system of assay [12] is LOX IMVI.
The test system of assay [13] is HOP-92.
The subject of assay [14] is K562.
The subject of assay [15] is SK-OV-3.
The test system of assay [16] is M19-MEL.
The subject of assay [17] is BT-549.
In assay [18] the test system is HL-60.
For assay [19], the system named is RXF 393.
In assay [20] the test system is OVCAR-5.

On to `CCc1nc2ccc(NCCN(C)C)c3c(=O)c4ccccc4n1c23`, for which the GI50 in assay [1] is 2.31 µM (inactive); in [2], 0.23 µM (active); in assay [3], 1.07 µM (active); in assay [4] it was 0.38 µM (active); in assay [5], 0.417 µM (active); in [6], 0.701 µM (active). For the same compound, the GI50 in [7] is 0.752 µM (active); in [8], 0.796 µM (active); in assay [9], 0.711 µM (active); in assay [10] it was 0.8 µM (active); in assay [11], 2.54 µM (inactive); in [12], 0.6 µM (active). Further, the GI50 in assay [13] is 0.592 µM (active); in assay [14], 0.468 µM (active); in [15], 1.69 µM (inactive); in assay [16] it was 2 µM (inactive); in [17], 4.61 µM (inactive); in assay [18], 1.75 µM (inactive). Further, the GI50 in assay [19] and in [20] was 1.67 µM (inactive) each time.

In the case of `C=CCCCN1CCCC(C)C1=S` (stereo unspecified), the GI50 in assay [1], in [2], in [3], in [4], in [5] and in assay [6] was > 100 µM (inactive) in each case. The GI50 in assay [7], in assay [8], in assay [9], in [11], in assay [12] and in assay [13] was > 100 µM (inactive) each time. Besides, the GI50 in [14], in assay [15], in [16], in assay [18], in assay [19] and in assay [20] was > 100 µM (inactive) each time.

As for `COc1ccc(/C=C2/C[N+](C)(C)C/C(=C/c3ccc(OC)cc3)C2=O)cc1`, the GI50 in assay [1] is > 100 µM (inactive); in assay [2], 38.2 µM (inactive); in assay [3], 20.9 µM (inactive); in assay [4], > 76.4 µM (inactive); in [5], > 100 µM (inactive); in assay [6], 16 µM (inactive). In addition, the GI50 in assay [7] is 5.7 µM (inactive); in [8], > 100 µM (inactive); in assay [9], 26.9 µM (inactive); in assay [11], 68.4 µM (inactive); in [12], 88.1 µM (inactive); in assay [13], 52.1 µM (inactive). For the same compound, the GI50 was 11.6 µM (inactive) in assay [14]; > 100 µM (inactive) in assay [15]; 23.6 µM (inactive) in assay [16]; 14.7 µM (inactive) in assay [18]; > 100 µM (inactive) in assay [19]; > 68.7 µM (inactive) in assay [20].
